Measured values reported in patent US20060258745A1, “Deramciclane-fumarate tablets” (EGIS GYOGYSZERGYAR RT., priority 2003, published 2006).

Key:
Water solubility = assay type: physicochemical
[1] = Crushing strength of compressed pure deramciclane-fumarate powder; assay type: physicochemical; conditions: 300 mg powder, die cavity of 10 mm diameter, eccentric press, compression force 5-40 kN
Text: Due to the weak cohesion characteristics of deramciclane-fumarate on compression of the particles of the active ingredient acceptable tablet strength can not be obtained.

CN(C)CCOC1(c2ccccc2)CC2CCC1(C)C2(C)C.O=C(O)/C=C/C(=O)O [deramciclane-fumarate, (1R,2S,4R)-(−)-2-dimethylaminoethoxy-2-phenyl-1,7,7-trimethyl-bicyclo[2.2.1]heptane-2-(E)-butenedioate (1:1)]
water solubility (Water solubility): low water solubility
crushing strength of the tablets [1]: ≤ 10 N
